For eight molecules, EC50 results are on record in BindingDB's records for doi:10.1016/j.bmcl.2009.04.116 (Banyu Pharmaceutical, 2009).

For orientation: EC50 means the concentration at which the effect is half-maximal.

One assay deals with Nociceptin receptor (Homo sapiens, UniProt P41146). Put plainly: In Vitro Binding Assay (IC50) and In Vitro Agonism/Antagonism Measurements (EC50/IC50).
Nociceptin receptor, sequence (P41146 whole entry): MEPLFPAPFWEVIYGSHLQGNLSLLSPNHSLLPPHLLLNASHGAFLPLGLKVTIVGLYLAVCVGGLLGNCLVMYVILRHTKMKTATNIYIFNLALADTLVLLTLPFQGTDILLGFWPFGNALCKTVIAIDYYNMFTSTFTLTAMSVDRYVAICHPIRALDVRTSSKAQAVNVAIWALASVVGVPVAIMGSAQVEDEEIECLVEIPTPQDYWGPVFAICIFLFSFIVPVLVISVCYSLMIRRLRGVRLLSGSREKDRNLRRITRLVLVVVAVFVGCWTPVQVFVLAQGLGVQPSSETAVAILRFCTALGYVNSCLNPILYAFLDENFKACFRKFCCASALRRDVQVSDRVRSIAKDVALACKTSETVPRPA
Settings: not given
The protocol: IC50 values are calculated using GraphPad Prism. Agonist/antagonist activities were measured by the [35S]GTPgamma-S binding to proteins using membrane fractions of CHO cells expressing ORL1. Nonspecific binding is determined in the presence of 10 uM unlabeled GTPgammaS. Membrane-bound radioactivity is measured using a TopCount-HTS (PerkinElmer). Specific binding of [35S]GTPgammaS is determined as a difference between the control (in the presence of appropriate concentration of nociceptin), and the baseline (in the presence of DMSO instead of compound). EC50/IC50 values are calculated from % of specific binding in the presence of various concentration of the compound using GraphPad Prism 3.03.
With `Cc1ncc(-c2c(C)c(CN[C@H]3CC[C@@H](F)C3)nn2-c2ncccc2Cl)cc1F` [arylpyrazole, 31], the EC50 came out at 0.31 nM.

On to `Cc1ccc(-c2c(C)c(CNC3CCC(F)(F)C3)nn2-c2ncccc2Cl)cn1` (stereo not drawn) [arylpyrazole, 29], for which the EC50 worked out at 4.5 nM.

`Cc1ccc(-c2c(C)c(CN[C@H]3CC[C@@H](F)C3)nn2-c2ncccc2Cl)cn1` [arylpyrazole, 28] gave an EC50 of 1 nM.

As for `Cc1ccc(-c2c(C)c(CNC3CCCC3F)nn2-c2ncccc2Cl)cn1` (stereo not drawn) [arylpyrazole, 27], the midpoint of the response, the EC50, lay at 7.1 nM.

`Cc1ncc(-c2c(C)c(CNC3CCCC3)nn2-c2ncccc2Cl)cc1F` [arylpyrazole, 30] gave an EC50 of 1.2 nM.

The same assay, now with this note: pH 7.4; 37 °C.
The molecule `Cc1c(CNC2CCCC2)nn(-c2ncccc2Cl)c1-c1ccc(Cl)nc1` [arylpyrazole, 18] came in with an EC50 of 12 nM.

The molecule `Cc1ccc(-c2c(C)c(CNC3CCCC3)nn2-c2ncccc2Cl)cn1` [arylpyrazole, 19] yielded an EC50 of 4.7 nM.

`Cc1c(CNC(C)C)nn(-c2ccc(Cl)cc2Cl)c1-c1ccc(Cl)cc1` [arylpyrazole, 1]: the EC50 was determined as 480 nM.
